Experimental data from patent publication US20080201790A1, “Method and product for regulating cell responsiveness to external signals” (priority 1993, published 2008).

Experiments:
[1] = system: JNK; assay: JNK solid state kinase assay (GST-Jun) in L929 cells; assay type: cell-based, murine
Protocol: (§1) In panel A cells were treated for 10 minutes with the indicated concentration of TNFα. JNK activation was measured using a solid phase kinase assay resulting in phosphorylation of GST-Jun. In […] the time course of MAPK activation is shown. MAPK was isolated from cell lysates on DEAE sephacel columns and MAPK activation was measured by phosphorylation of the EGFR peptide substrate. Panel C depicts the concentration curve of MAPK activation by TNFα. Cells were treated with the indicated concentration of TNFα and MAPK was assayed.
(§2) Cell lines and culture. L929 cells (ATCC CCL1 were maintained in Dulbecco's modified Eagle's medium with 5% newborn calf serum and 5% bovine calf serum (BCS) supplemented with 100 ug/ml streptomycin and 100 U/ml penicillin. The cells were grown in 10 cm dishes at 37° C. in 7.5% CO2. Cells were made quiescent where indicated by incubation in Dulbecco's modified Eagle's medium and 0.1% bovine serum albumin for 24 h. Recombinant murine TNFα and recombinant human bFGF (147aa) were from R&D Systems, Minneapolis, Minn. Cells were pretreated where indicated with the MEK-1 inhibitor PD#098059 (Parke-Davis Pharmaceutical Corp. Ann Arbor, Mich.) for 1 h at 37° C. Cells were stimulated by incubation with the indicated cytokine or growth factor for various times at 37° C. Stimulation was stopped by rinsing the plates twice with ice cold phosphate buffered saline (PBS) and lysing the cells in the appropriate lysis buffer. Cells were scraped from the plates and nuclei were pelleted for 10 min at 14,000 RPM in a microcentrifuge. JNK assay. JNK activity was measured using a solid state kinase assay in which glutathione S-transferase-c-Jun (1-79) (GST-JUN) cound to glutathione-Sepharose 4B beads was used to affinity purify JNK and then JNK activity was measured in an in vitro kinase assay using the sepharose bound GST-Jun as a substrate (Hibi, M., et al. (1993) Genes & Development 7:2135-2148). Stimulated or unstimulated cells were lysed in 0.5% Nonidet P-40, 20 mM HEPES pH 7.2, 100 mM NaCl, 2 mM dithiothreitol, 1 mM EDTA, 1.0 mM phenylmethylsulfonylfluoride, 1 μg/ml aprotinin and the nuclei pelleted. Lysates were normalized for protein content. JNK was affinity purified from 50-100 μg of cell lysate by the addition of 10 ul of GST-Jun sepharose slurry (2 μg GST-Jun). Binding to GST-Jun efficiently isolates the two major forms of JNK (p45 and p55) and under the conditions used JNK isolation was linear for 10-250 μg of cell lysate. The lysates were rotated at 4° C. for 1-3 h. Beads were washed twice in lysis buffer and then twice in PAN (10 mM PIPES, pH 7.0, 100 mM NaCl, 21 μg/ml aprotinin). Kinase reactions were carried out at 30° C. for 15 min in 20 mM Hepes pH 7.2, 20 mM β-glycerophosphate, 10 mM p-nitrophenyl phosphate, 10 mM MgCl2, 1 mM dithiothreitol, 50 μm sodium vanadate, 10 μCi γ^32P-ATP 4300 Ci/mmole. The kinase reaction was linear from 0-30 min. MAPK Assay MAPK activity was measured exactly as described previously (Gardner, A. M., et al. (1994) Meth. Enzymol. 238:258-270) with the exception that MonoQ FPLC fractionation was replaced by step elution from a DEAE-Sephacel column using 0.5 M NaCl in loading buffer. The eluate was assayed in triplicate using the epidermal growth factor receptor 662-681 peptide (EGFR662-681) as a selective substrate for MAPK activity (Heasley, L. E., et al. (1994) American Journal of Physiology (Renal Fluid Electrolyte Physiol. 36) 267:F366-F373). […] Cells were lysed by scraping in ice cold RIPA buffer (50 mM Tris-HCl, pH 7.2, 150 mM NaCl, 0.1% SDS, 0.5% sodium deoxycholate, 1.0% Triton X-100, 10 mM sodium pyrophosphate, 25 mM β-glycerophosphate, 2 mM sodium vanadate, 2.1 μg/ml aprotinin) and the nuclei were pelletted. […]

[2] = system: p42/p44 MAPK; assay: MAPK assay (DEAE-Sephacel, EGFR662-681 peptide) in L929 cells; assay type: cell-based, murine
Protocol: as §1
FIG. 26 depicts the activation of MAPK by bFGF in L929 cells. Serum starved L929 cells were stimulated for 10 min with the indicated concentration of bFGF.
as §2

Substance | effect on JNK activity ([1]; 2.5 ng/ml bFGF) | effect on TNFα stimulation of JNK ([1]; L929 cells) | concentrations giving maximal stimulation of MAPK activity ([2]; serum starved L929 cells, 10 min) | JNK activation ([1]; 0.1 ng/ml TNFα) | JNK activity relative to basal ([1]; 1-2 hr post-stimulation) | concentration giving maximal JNK activation ([1]; L929 cells) | time of peak JNK activity ([1]; L929 cells) | MAPK activity stimulated above basal ([2]; 1 ng/ml TNFα) | effect on MAPK activity ([2]; 1 ng/ml TNFα, FIG. 27 panel B) | concentration required to stimulate p42/p44 MAPK 2-3 fold ([2]; L929 cells) | effect on bFGF stimulation of MAPK activity ([2]; L929 cells) | time to maximal stimulation of p42/p44 MAPK activity ([2]; L929 cells)
bFGF: recombinant human bFGF (147aa), basic fibroblast growth factor | little or no effect on JNK activity | did not alter the magnitude of JNK activation in response to TNFα | 0.25 to 0.5 ng/mL |  |  |  |  |  |  |  |  | 
TNFα |  |  |  | greater than four-fold | two-fold above basal | 1 ng/mL | 10 to 15 min | 20% | only modest stimulatory effects on MAPK activity | Greater than 10 ng/ml | had little or no effect on bFGF stimulation of MAPK activity | 5 to 10 min
